The target in this test is USP30 (Homo sapiens (Human), UniProt Q70CQ3). Description: USP30 biochemical IC50 assay. To be noted: read-out: IC50 range; fluorescence polarisation, TAMRA labelled peptide linked to ubiquitin; 30 min pre-incubation, read after 2 hr. For orientation: Polarisation of emitted light reports the rotation of a fluorescent probe.

Molecules are shown by their SMILES. Bounds are passed on as bounds.

Sequence of USP30 (Q70CQ3 57-517): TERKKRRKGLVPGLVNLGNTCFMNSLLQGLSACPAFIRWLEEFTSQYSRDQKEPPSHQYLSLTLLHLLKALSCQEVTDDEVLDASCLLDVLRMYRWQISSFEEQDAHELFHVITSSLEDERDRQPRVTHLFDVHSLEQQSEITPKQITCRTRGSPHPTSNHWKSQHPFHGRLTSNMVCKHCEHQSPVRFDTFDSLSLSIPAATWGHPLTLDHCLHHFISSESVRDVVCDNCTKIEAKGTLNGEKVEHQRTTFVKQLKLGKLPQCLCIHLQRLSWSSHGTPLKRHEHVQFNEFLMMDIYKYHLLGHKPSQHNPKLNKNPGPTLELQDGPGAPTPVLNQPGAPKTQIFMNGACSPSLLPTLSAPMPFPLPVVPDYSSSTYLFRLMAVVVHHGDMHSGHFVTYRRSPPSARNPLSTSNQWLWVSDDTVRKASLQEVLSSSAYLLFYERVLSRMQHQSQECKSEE
Protocol: USP30 Biochemical IC50 Assay
Dilution plates were prepared at 21 times the final concentration (2100 μM for a final concentration of 100 μM) in 50% DMSO in a 96-well polypropylene V-bottom plate (Greiner #651201). A typical 8-point dilution series to be 100, 30, 10, 3, 1, 0.3, 0.1, 0.03 μM final. Reactions were performed in duplicate in black 384 well plates (small volume, Greiner 784076) in a final reaction volume of 21 μl. Either 1 μl of 50% DMSO or diluted compound was added to the plate. USP30 was diluted in reaction buffer (40 mM Tris, pH 7.5, 0.005% Tween 20, 0.5 mg/ml BSA, 5 mM—beta-mercaptoethanol) to the equivalent of 0.05 μl/well and 10 μl of diluted USP30 was added to the compound. Enzyme and compound were incubated for 30 min at room temp. Reactions were initiated by the addition of 50 nM of TAMRA labelled peptide linked to ubiquitin via an iso-peptide bond as fluorescence polarisation substrate. Reactions were read immediately after addition of substrate and following a 2 hr incubation at room temperature. Readings were performed on a Pherastar Plus (BMG Labtech). λ Excitation 540 nm; λ Emission 590 nm.

`N#CN1CC[C@@H](N2CCN(c3cc(-c4ccccc4)n[nH]3)S2(=O)=O)C1` [Example 28, (R)-3-(1,1-dioxido-5-(3-phenyl-1H-pyrazol-5-yl)-1,2,5-thiadiazolidin-2-yl)pyrrolidine-1-carbonitrile]: the IC50 was less than 0.1 µM.
In the case of `N#CN1CC[C@@H](N2CCN(c3cc(-c4ccccc4)no3)S2(=O)=O)C1` [Example 26, (R)-3-(1,1-dioxido-5-(3-phenylisoxazol-5-yl)-1,2,5-thiadiazolidin-2-yl)pyrrolidine-1-carbonitrile] it was less than 0.1 µM; in that of `N#CN1CC[C@@H](N2CCN(c3cccc(N4CCOCC4)c3)S2(=O)=O)C1` [Example 24, (R)-3-(5-(3-morpholinophenyl)-1,1-dioxido-1,2,5-thiadiazolidin-2-yl)pyrrolidine-1-carbonitrile], less than 0.1 µM; in that of `COCCN(CCOC)c1cc(N2CCN([C@@H]3CCN(C#N)C3)S2(=O)=O)ccn1` [Example 56, (R)-3-(5-(2-(bis(2-methoxyethyl)amino)pyridin-4-yl)-1,1-dioxido-1,2,5-thiadiazolidin-2-yl)pyrrolidine-1-carbonitrile], 0.1 to 1 µM.
As to `N#CN1CC[C@@H](N2CCCN(c3cccc(-c4ccccc4)c3)S2(=O)=O)C1` [Example 14, (R)-3-(6-([1,1′-biphenyl]-3-yl)-1,1-dioxido-1,2,6-thiadiazinan-2-yl)pyrrolidine-1-carbonitrile], the IC50 lay in the range of 0.1 to 1 µM.
With `COc1ccc(N2CCN([C@@H]3CCN(C#N)C3)S2(=O)=O)cc1N1CCOCC1` [Example 8, (R)-3-(5-(4-methoxy-3-morpholinophenyl)-1,1-dioxido-1,2,5-thiadiazolidin-2-yl)pyrrolidine-1-carbonitrile] the figure was 0.1 to 1 µM; with `N#CN1CCC(N2CCCN(c3ccccc3)S2(=O)=O)C1` (stereo not drawn) [Example 38, 3-(1,1-dioxido-6-phenyl-1,2,6-thiadiazinan-2-yl)pyrrolidine-1-carbonitrile], 0.1 to 1 µM.
With `N#CN1CC[C@@H](N2c3ccccc3N(Cc3cccnc3)S2(=O)=O)C1` [Example 68, (R)-3-(2,2-dioxido-3-(pyridin-3-ylmethyl)benzo[c][1,2,5]thiadiazol-1(3H)-yl)pyrrolidine-1-carbonitrile] the figure was 1 to 10 µM; with `N#CN1CC[C@@H](N2CCCN(c3ccc(-c4ccccc4)cc3)S2(=O)=O)C1` [Example 12, (R)-3-(6-([1,1′-biphenyl]-4-yl)-1,1-dioxido-1,2,6-thiadiazinan-2-yl)pyrrolidine-1-carbonitrile], 0.1 to 1 µM.
With `N#CN1CC[C@H](N2CCN(c3ccc(-c4ccccc4)cc3)S2(=O)=O)C1` [Example 34] the figure was less than 0.1 µM.
As for `N#CN1CC[C@@H](NS(=O)(=O)N2CCc3ccccc3C2)C1` [Example 62, (R)—N-(1-cyanopyrrolidin-3-yl)-3,4-dihydroisoquinoline-2(1H)-sulfonamide], the IC50 fell in the range of 1 to 10 µM.
With `N#CN1CC[C@@H](N2CCN(c3ccc(-c4ccncc4)cc3)S2(=O)=O)C1` [Example 18, (R)-3-(1,1-dioxido-5-(4-(pyridin-4-yl)phenyl)-1,2,5-thiadiazolidin-2-yl)pyrrolidine-1-carbonitrile] the figure was less than 0.1 µM; with `CN1C(=O)COc2cc(N3CCN([C@@H]4CCN(C#N)C4)S3(=O)=O)ccc21` [Example 2, (R)-3-(5-(4-methyl-3-oxo-3,4-dihydro-2H-benzo[b][1,4]oxazin-7-yl)-1,1-dioxido-1,2,5-thiadiazolidin-2-yl)pyrrolidine-1-carbonitrile], less than 0.1 µM; with `N#CN1CCC(NS(=O)(=O)N2CCN(c3ccccc3)CC2)C1` (stereo not drawn) [Example 60, N-(1-cyanopyrrolidin-3-yl)-4-phenylpiperazine-1-sulfonamide], 0.1 to 1 µM.
As to `N#CN1CC[C@@H](N2Cc3cccc(N4CCOCC4)c3NS2(=O)=O)C1` [Example 77, (R)-3-(8-morpholino-2,2-dioxido-1,4-dihydro-3H-benzo[c][1,2,6]thiadiazin-3-yl)pyrrolidine-1-carbonitrile], the IC50 is 1 to 10 µM.
In the case of `N#CN1CC[C@@H](N2CCN(C3CCN(c4ccccn4)C3)S2(=O)=O)C1` (stereo partly drawn) [Example 9, (3R)-3-(1,1-dioxido-5-(1-(pyridin-2-yl)pyrrolidin-3-yl)-1,2,5-thiadiazolidin-2-yl)pyrrolidine-1-carbonitrile] it was 0.1 to 1 µM; in that of `N#CN1CC[C@@H](N2CCN(c3nccc(N4CCOCC4)n3)S2(=O)=O)C1` [Example 51, (R)-3-(5-(4-morpholinopyrimidin-2-yl)-1,1-dioxido-1,2,5-thiadiazolidin-2-yl)pyrrolidine-1-carbonitrile], 0.1 to 1 µM; in that of `N#CN1CC[C@@H](NS(=O)(=O)N2CCc3c(-c4ccccc4)cccc32)C1` [Example 64, (R)—N-(1-cyanopyrrolidin-3-yl)-4-phenylindoline-1-sulfonamide], 0.1 to 1 µM.
In the case of `CN1CCN(c2cc(N3CCN([C@@H]4CCN(C#N)C4)S3(=O)=O)ccn2)CC1` [Example 52, (R)-3-(5-(2-(4-methylpiperazin-1-yl)pyridin-4-yl)-1,1-dioxido-1,2,5-thiadiazolidin-2-yl)pyrrolidine-1-carbonitrile] it was 0.1 to 1 µM; in that of `N#CN1CC[C@@H](N2CCCN(c3ccc4nc(C(F)(F)F)[nH]c4c3)S2(=O)=O)C1` [Example 46, (R)-3-(1,1-dioxido-6-(2-(trifluoromethyl)-1H-benzo[d]imidazol-6-yl)-1,2,6-thiadiazinan-2-yl)pyrrolidine-1-carbonitrile], 1 to 10 µM; in that of `CN1c2cc(-c3ccccc3)ccc2CN([C@@H]2CCN(C#N)C2)S1(=O)=O` [Example 73, (R)-3-(1-methyl-2,2-dioxido-7-phenyl-1,4-dihydro-3H-benzo[c][1,2,6]thiadiazin-3-yl)pyrrolidine-1-carbonitrile], 0.1 to 1 µM.
Turning to `N#CN1CC[C@@H](N2Cc3ccccc3N(Cc3ccccc3)S2(=O)=O)C1` [Example 69, (R)-3-(1-benzyl-2,2-dioxido-1,4-dihydro-3H-benzo[c][1,2,6]thiadiazin-3-yl)pyrrolidine-1-carbonitrile], the IC50 lay in the range of 0.1 to 1 µM.
For `N#CN1CC[C@@H](NS(=O)(=O)N2CCCn3nc(-c4ccccc4)cc32)C1` [Example 30, (R)—N-(1-cyanopyrrolidin-3-yl)-2-phenyl-6,7-dihydropyrazolo[1,5-a]pyrimidine-4(5H)-sulfonamide], the IC50 lay in the range of 0.1 to 1 µM.
With `N#CN1CC[C@H](N2CCN(c3cccc(-c4ccno4)c3)S2(=O)=O)C1` [Example 1, (S)-3-(5-(3-(isoxazol-5-yl)phenyl)-1,1-dioxido-1,2,5-thiadiazolidin-2-yl)pyrrolidine-1-carbonitrile] the figure was 0.1 to 1 µM; with `N#CN1CC[C@@H](N2CCN(c3cccc(-c4ccncc4)c3)S2(=O)=O)C1` [Example 19, (R)-3-(1,1-dioxido-5-(3-(pyridin-4-yl)phenyl)-1,2,5-thiadiazolidin-2-yl)pyrrolidine-1-carbonitrile], less than 0.1 µM; with `C[C@H]1CN(C#N)C[C@@H]1N1CCN(c2cccc(N3CCOCC3)c2)S1(=O)=O` [Example 41, (3S,4R)-3-methyl-4-(5-(3-morpholinophenyl)-1,1-dioxido-1,2,5-thiadiazolidin-2-yl)pyrrolidine-1-carbonitrile], 0.1 to 1 µM.
`N#CN1CC[C@@H](N2CCN(c3ccc4c(c3)N(CCO)C(=O)CO4)S2(=O)=O)C1` [Example 6, (R)-3-(5-(4-(2-hydroxyethyl)-3-oxo-3,4-dihydro-2H-benzo[b][1,4]oxazin-6-yl)-1,1-dioxido-1,2,5-thiadiazolidin-2-yl)pyrrolidine-1-carbonitrile]: the IC50 lay within 0.1 to 1 µM.
With `N#CN1CC[C@@H](N2Cc3cc(-c4ccccc4)ccc3NS2(=O)=O)C1` [Example 75, (R)-3-(2,2-dioxido-6-phenyl-1,4-dihydro-3H-benzo[c][1,2,6]thiadiazin-3-yl)pyrrolidine-1-carbonitrile], the IC50 is 1 to 10 µM.
With `N#CN1CC[C@@H](NS(=O)(=O)N2CCc3cc(-c4ccccc4)ccc32)C1` [Example 63, (R)—N-(1-cyanopyrrolidin-3-yl)-5-phenylindoline-1-sulfonamide] the figure was 0.1 to 1 µM; with `N#CN1CC[C@H](N2CCN(c3cccc(-c4cccnc4)c3)S2(=O)=O)C1` [Example 48, (S)-3-(1,1-dioxido-5-(3-(pyridin-3-yl)phenyl)-1,2,5-thiadiazolidin-2-yl)pyrrolidine-1-carbonitrile], 0.1 to 1 µM.
With `N#CN1CCC(NS(=O)(=O)Nc2ccc(-c3ccccc3)cc2)C1` (stereo not drawn) [Example 58, N-biphenyl-4-yl-N′-(1-cyanopyrrolidin-3-yl)sulfuric diamide] the figure was 0.1 to 1 µM; with `N#CN1CCC(NS(=O)(=O)N2CCC(c3ccccc3)CC2)C1` (stereo not drawn) [Example 59, N-(1-cyanopyrrolidin-3-yl)-4-phenylpiperidine-1-sulfonamide], 0.1 to 1 µM.
With `N#CN1CC[C@@H](N2CCN(c3ccc(-c4ccccc4)cc3)S2(=O)=O)C1` [Example 11, (R)-3-(5-([1,1′-biphenyl]-4-yl)-1,1-dioxido-1,2,5-thiadiazolidin-2-yl)pyrrolidine-1-carbonitrile] the figure was less than 0.1 µM; with `N#CN1CC[C@@H](N2Cc3ccc(-c4ccccc4)cc3NS2(=O)=O)C1` [Example 72, (R)-3-(2,2-dioxido-7-phenyl-1,4-dihydro-3H-benzo[c][1,2,6]thiadiazin-3-yl)pyrrolidine-1-carbonitrile], 0.1 to 1 µM; with `COc1ccccc1-c1cccc(N2CCN([C@@H]3CCN(C#N)C3)S2(=O)=O)c1` [Example 10, (R)-3-(5-(2′-methoxy-[1,1′-biphenyl]-3-yl)-1,1-dioxido-1,2,5-thiadiazolidin-2-yl)pyrrolidine-1-carbonitrile], less than 0.1 µM.
Turning to `Cn1cc(-c2ccc3c(c2)NS(=O)(=O)N([C@@H]2CCN(C#N)C2)C3)cn1` [Example 71, (R)-3-(7-(1-methyl-1H-pyrazol-4-yl)-2,2-dioxido-1,4-dihydro-3H-benzo[c][1,2,6]thiadiazin-3-yl)pyrrolidine-1-carbonitrile], the IC50 is 0.1 to 1 µM.

One may read the IC50 as the concentration that gives 50% inhibition.

(Values after patent publication US11091488B2 (MISSION THERAPEUTICS LIMITED, priority 2015, dated 2021).)
